The record followed here is US20230132535A1, “PROLIFERATION SUPPRESSING AGENT FOR CANINE CANCER CELLS” (Japan Animal Referral Medical Center, priority 2020, published 2023).

For assay [1], the system named is TCCV-Ec strain. The assay is described as follows: Cell proliferation suppressing test (WST 1), TCCV-Ec strain. The assay is classed as cell-based, canine. The following applies: Canis lupus familiaris; TCCV-Ec strain only. As for the experimental part:
(§1) 1,000 to 3,000 established cell lines (TCCV-Ka, TCCV-So, TCCV-Ec, TCCV-Ni, and TCCV-Ic) per well were spread on 96 well culture plates and cultured for 24 hours, then 8 BRAF inhibiting agents (GDC0879, AZ628, PLX4720, Encorafenib, Vemurafenib, Dabrafenib, RAF265, and CEP32496) dissolved in 0.1% DMSO were added with GDC0879, AZ628, Vemurafenib, Dabrafenib, and RAF265 at 0, 50, 100, 500, 1000, 5000, and 10000 nM, PLX4720 at 0, 1, 10, 100, 1000, 5000, and 10000 nM, Encorafenib at 0, 32, 63, 125, 250, 500, and 1000 nM, CEP32496 at 0, 3, 10, 30, 100, 300, and 1000 nM, the number of surviving cells after 24, 48, and 72 hours was measured using WST 1, and the cell proliferation suppressing activity was calculated.
(§2) One example of the reaction curve of the BRAF inhibiting agent against canine V595E transitional epithelial cancer cells (TCC V-So strain) was shown in FIG. 1.

The subject of assay [2] is canine V595E transitional epithelial cancer cells (TCCV-Ka, TCCV-So, TCCV-Ec, TCCV-Ni, TCCV-Ic). Kind of assay: Cell proliferation suppressing test (WST 1), five V595E transitional epithelial cancer established cell lines. The assay is classed as cell-based.
Excerpt: Using five canine V595E transitional epithelial cancer established cell lines, taken from clinical cases by the inventors so far and cloned in approximately 80 passages, the cell proliferation suppressing activity of eight human BRAF inhibiting agents (GDC0879, AZ628, PLX4720, Encorafenib, Vemurafenib, Dabrafenib, RAF265, and CEP32496), which are available and have high cell proliferation suppressing activity, was investigated. In addition, in the xenograft test system, suppression of tumor growth (anti-tumor activity) was measured and the anti-tumor activity was investigated.
as §1, with “calculated. […]” for “calculated.”

For assay [3], the system named is V595E transitional epithelial cancer cells (TCCV-So strain). The assay is described as follows: Cell proliferation suppressing test (WST 1), TCCV-So strain. It counts as cell-based, canine. The following applies: Canis lupus familiaris. The procedure: as §1, §2
Assay [4] deals with BRAFV595E transitional epithelial cancer cells (TCCV-Ka strain). Kind of assay: Anti-tumor activity by a xenograft test system (TCCV-Ka strain in SCID mice). The assay is classed as in vivo, SCID mouse. The following applies: 10 mg/kg intraperitoneally, 5 times/week, compared to control group, from day 5 of administration. As for the experimental part: In order to observe the anti-tumor activity in the xenograft test system, it has been reported that the tumor growth depends on the number of cells inoculated, cell strains, and animal species. Then, five strains of V595E transitional epithelial cancer established cell lines, 1×10^6 and 1×10^7 cells/200 μl, were inoculated subcutaneously on the ventral side of SCID mouse (CB17/Icr-scid/scid. Jcl, CLEA Japan), and the formation of tumors was observed.
Using the TCCV-Ka strain as a graft cell, 1×10^7 cells were inoculated on the right ventral side of 5 SCID mice in each of the administration group and the control group. Two weeks later, a tumor of approximately 5×5 mm was formed. In the control group, 10% DMSO was administered intraperitoneally, and in the administration group, 200 μl of CEP32496 suspension solution (10 mg/kg) in 10% DMSO was administered intraperitoneally. The administration was 5 times/week.

For assay [5], the system named is TCCV-Ni strain. Kind of assay: Cell proliferation suppressing test (WST 1), TCCV-Ni strain. The assay is classed as cell-based, canine. The conditions noted are these: Canis lupus familiaris.

For the compound `Cn1c(Nc2ccc(C(F)(F)F)cc2)nc2cc(Oc3ccnc(-c4ncc(C(F)(F)F)[nH]4)c3)ccc21` [RAF265], the midpoint of inhibition in assay [1], the IC50, lay at 0.15 µM.
For the compound `COc1cc2ncnc(Oc3cccc(NC(=O)Nc4cc(C(C)(C)C(F)(F)F)on4)c3)c2cc1OC` [CEP32496, 1-(3-((6,7-dimethoxyquinazolin-4-yl)oxy)phenyl)-3-(5-(1,1,1-trifluoro-2-methylpropan-2-yl)isoxazol-3-yl)urea], the “proliferation suppressing activity compared to the other 7 BRAF inhibiting agents” value in assay [2] (5 strains, FIG. 2) was “significantly higher activity”. Further, the IC50 in assay [2] (Canis lupus familiaris, all the cell strains used (5 strains)) was 0.009 to 0.2 µM; in assay [3], 0.015 µM. Moreover, in assay [4], the “suppression of tumor formation (anti-tumor activity)” value is recorded as “significant suppression of tumor formation”.
`CCCS(=O)(=O)Nc1ccc(F)c(C(=O)c2c[nH]c3ncc(Cl)cc23)c1F` [PLX4720]: in assay [1], it took 0.2 µM to reach half-maximal inhibition (IC50).
Still for that read-out and setting: for `COC(=O)N[C@@H](C)CNc1nccc(-c2cn(C(C)C)nc2-c2cc(Cl)cc(NS(C)(=O)=O)c2F)n1` [Encorafenib] the value was 0.18 µM.
For `CCCS(=O)(=O)Nc1ccc(F)c(C(=O)c2c[nH]c3ncc(-c4ccc(Cl)cc4)cc23)c1F` [Vemurafenib], half-maximal inhibition in assay [5] (IC50) was put at 1.5 µM.

Usually IC50 stands for the point on the concentration scale where inhibition reaches its midpoint.
